Where “and” joins values, the source holds several entries; their conditions need not be identical. Equal entries are not always repeated. Marks after values point to notes of the source that are not given here.
What was measured:
aorta mRNA expression = experiment: GeneChip analysis of aorta mRNA expression after oral and SC dosing of insulin; format: in vivo, Sprague-Dawley rats; details: for Changes in aorta mRNA levels (control groups): component given orally alone
Experimental: A total of 60 male Sprague-Dawley rats were fasted for 24 hours and then anesthetized with Thorazine (1.5 mg/kg, im) and Ketamine (44 mg/kg, im). They were then divided into the following 5 treatment groups: • 1. H2O (p.o. 1 mL/kg) • 2. Carrier (p.o., 1 mL/kg; 200 mg/kg) • 3. Insulin (p.o., 1 ml/kg; 0.5 mg/kg) • 4. Insulin and Carrier (p.o., 1 ml/kg; 0.5 mg/kg Insulin and 200 mg/kg 1182) • 5. Insulin (s.c., 0.05 mg/kg) • There were twelve animals per group, with three being sacrificed at 30, 60, 120 and 180 minutes. For serum insulin and blood glucose monitoring, 0.4 mL of blood was drawn from the tail artery. Following euthanasia, an aorta sample was removed and snap-frozen in liquid nitrogen. All animal studies where conducted in accordance with the IACUC approved protocols.
Total RNA was prepared from the frozen tissue sample following the protocol for use of Trizol Reagent (Invitrogen, Inc., Carlsbad, Calif.). The samples were then further cleaned up by use of the Qiagen Midi Kit (Valencia, Calif.). Quality of each RNA sample was assessed using agarose gel electrophoresis and UV absorbance at 260 and 280. Acceptable RNA samples were pooled in equal quantities on a mass basis. This pooled sample was used to prepare cDNA following the protocol provided by Affymetrix. This sample was then used as template in an ii: vitro transcription labeling and amplification reaction using the Enzo BioArray High Yield RNA Transcript Labeling Kit (Affymetrix Inc., Santa Clara, Calif.). 15 μg of labeled transcript was then fragmented and used to prepare a hybridization solution as described in the Affymetrix GeneChip Protocol, Affymetrix, Inc., 2000.
The samples were hybridized to a Test Array and 5′ to 3′ ratios, detection limit, and image quality were assessed to ensure the quality of the labeled sample. Acceptable samples were then hybridized to an Affymetrix Rat U34A array. Washing and staining of these arrays was performed using the standard Affymetrix protocols. Array quality was assessed in the same manner as the Test array. Acceptable samples were analyzed both in the expression patterns seen across the group as well as pair wise in the following manner:
Fold change were determined by the Affymetrix Microarray Suite Software package and values below 2 fold were considered insignificant. This software package analysis compares the individual members of each probe set to determine a Difference Call. In this report all calculated fold changes are used in the figures, however in the results and discussion only those fold changes that received an Increasing or Decreasing call by the Affymetrix software were used to draw conclusions.

[1] = Example 5: C-peptide corrected insulin pharmacokinetics; design: species or system human; details: in vivo; for C-peptide corrected insulin AUC(0-2) / C-peptide corrected insulin AUC(0-6) / C-peptide corrected insulin tmax, median: human
Experimental: On the basis of plasma concentrations of 4-CNAB and insulin, PK analysis was performed using non-compartmental PK methods as implemented in WinNonlin™ Professional version 3.2. The profiles for insulin and C-peptide corrected insulin were evaluated up to 6 hours as food was given 6 hours following insulin treatment. The following parameters were derived for 4-CNAB: Cmax, tmax, AUC(0-t), AUC(0-inf), AUC% Extrap, Kel, t1/2, CL/F, Vd/F, MRT(0-t), MRT(0-inf) and Frel. The following parameters were derived for insulin and C-peptide corrected insulin: Cmax, tmax, AUC(0-2), AUC(0-6), AUC(0-t) and concentrations (C^b) and corresponding time (t^b) immediately prior to intervention for hypoglycemia.
For the PK analysis of insulin, analysis was conducted for both measured insulin and C-peptide corrected insulin concentrations. This was done using concentrations of the precursor C-peptide and the following equation: Corrected Insulin Concentration=Insulin Concentration−(Baseline Ratio×C-peptide) where

plasma glucose = experiment: Example 5: plasma glucose pharmacodynamics; format: in vivo, human
Experimental: For insulin/4-CNAB treatment Groups 2 and 3, subjects' blood samples (1 drop per sample) were drawn at 15 minutes before dosing, and at 5, 10, 15, 20, 25, 30, 35, 40, and 50 minutes and at 1, 1.25, 1.5, 1.75, 2, 2.5, 3, 4, 6, 8 and 12 hours post-dose (21 samples per treatment for Insulin/4-CNAB dosing groups) for plasma glucose, insulin and C-peptide measurements. For the 4-CNAB alone treatment Group 1, blood samples were collected before dosing (−15 minutes), and at 30 minutes and at 2 hr post-dose for blood glucose measurements. For the insulin alone control group (minimum 3 subjects), blood samples (3 mL in sodium heparin tube) were drawn at 15 minutes before dosing, and at 10, 20, 30, 40, 50 minutes and 1, 1.25, 2, 2.5, 3 and 6 hr post-dose (12 samples per treatment). The blood samples for glucose were assayed in real time using a Glucometer®. These measurements were used for detection of onset of hypoglycemia, so rescue action could be taken where necessary. Plasma glucose, insulin and C-peptide measurements were done according to standard procedures.
Plasma glucose was measured based on a timed-endpoint method using a BECKMAN Synchron CX system that mixes exact proportions of reagents that catalyse the phosphorylation of glucose. The Synchron CX measures changes in the absorbance spectrum at 340 nm at a fixed time interval. The change in absorbance is directly proportional to the concentration of glucose in the sample.
On the basis of plasma concentrations of glucose, PD analysis was performed using WinNonlin™ Professional version 3.2. The profiles for glucose, glucose change from baseline and glucose percentage change from baseline were evaluated up to 6 hours as food was given 6 hours following insulin treatment. The following PD parameters were computed for plasma glucose concentration: AURC(0-2), AURC(0-t) (total response), Rmax (minimum value), tRmax and concentrations (R^b) and corresponding time (t^b) immediately prior to intervention for hypoglycemia. The following PD parameters were computed for plasma glucose concentration change from baseline: AUEC(0-2), AUEC(0-t) (baseline subtracted), Emax (baseline subtracted), tEmax (obtained without interpolation), percent change from baseline and concentrations (E^c) and corresponding time (t^c) immediately prior to intervention for hypoglycemia.
Similarly, in order to take into account baseline levels of glucose, PD analysis was conducted based on the percent change (decrease or increase) in glucose concentration from the baseline, where baseline was taken as the pre-dose concentration levels, rather than absolute values only. The glucose concentration percent change from baseline values were also calculated, and profiles were tabulated and plotted. Thus, […]

[2] = 150 Units oral insulin alone, all subjects
[3] = 150 Units oral insulin alone, non-hypoglycemic subjects
[4] = 10 Units SC, hypoglycemic subjects

Compound: oral insulin alone: recombinant human zinc insulin given orally without delivery agent
- Changes in aorta mRNA levels (control groups) (aorta mRNA expression): no consistent and significant changes in mRNA levels in the aorta
- C-peptide corrected insulin AUC(0-2) ([1]; po): 10.8 ± 16.6 pmol·h/L
- C-peptide corrected insulin AUC(0-6) ([1]; po): 21.5 ± 42.0 pmol·h/L
- C-peptide corrected insulin tmax, median ([1]; po): 2.00 h
- Change in glucose concentrations (plasma glucose; 150 Units oral insulin alone): only a slight change in glucose concentrations
- Glucose change AUEC(0-2) (plasma glucose; [2]): -0.63 ± 0.77 mmol·h/L
- Glucose change from baseline Emax (plasma glucose; [2]): -0.79 ± 0.43 mmol/L
- Glucose change tEmax, median (plasma glucose; [2]): 6.00 h
- Maximum % change of glucose from baseline up to 6 h (plasma glucose; [2]): −12.41 ± 6.48%
- Plasma glucose AURC(0-2) (plasma glucose; [2]): 11.06 ± 0.69 mmol·h/L
- Plasma glucose AURC(0-6) (plasma glucose; [2]): 32.15 ± 1.41 mmol·h/L
- Plasma glucose Rmax (minimum concentration) (plasma glucose; [2]): 5.08 ± 0.20 mmol/L
- Plasma glucose tRmax, median (plasma glucose; [2]): 6.00 h
- Glucose change AUEC(0-6) (plasma glucose; 150 Units oral insulin alone, all subjects, AUEC(0-t) for 6 h sampling schedule): −3.01 ± 2.44^d mmol · h/L
- Glucose change AUEC(0-2) (plasma glucose; [3]): -0.63 ± 0.77 mmol·h/L
- Glucose change from baseline Emax (plasma glucose; [3]): -0.79 ± 0.43 mmol/L
- Glucose change tEmax, median (plasma glucose; [3]): 6.00 h
- Maximum % change of glucose from baseline up to 6 h (plasma glucose; [3]): −12.41 ± 6.48%
- Plasma glucose AURC(0-2) (plasma glucose; [3]): 11.06 ± 0.69 mmol·h/L
- Plasma glucose Rmax (minimum concentration) (plasma glucose; [3]): 5.08 ± 0.20 mmol/L
- Plasma glucose tRmax, median (plasma glucose; [3]): 6.00 h
- Glucose change AUEC(0-6) (plasma glucose; 150 Units oral insulin alone, non-hypoglycemic subjects, AUEC(0-t) for 6 h sampling schedule): −3.01 ± 2.44^d mmol · h/L
- Plasma glucose AURC(0-6) (plasma glucose; 150 Units oral insulin alone, non-hypoglycemic subjects, AURC(0-t) for 6 h sampling schedule): 32.15 ± 1.41^c mmol · h/L

Compound: O=C(O)CCCNC(=O)c1ccc(Cl)cc1O [4-CNAB, 4-[(4-chloro, 2-hydroxybenzoyl)amino]butanoic acid]
- Changes in aorta mRNA levels (control groups) (aorta mRNA expression): no consistent and significant changes in mRNA levels in the aorta
- Effect on plasma glucose levels (plasma glucose; 4-CNAB alone, oral): no significant effect on plasma glucose levels

Compound: SC insulin: human regular insulin injected subcutaneously (Humulin R or equivalent; Calbiochem insulin in the rat studies)
- ICAM-1 mRNA (aorta mRNA expression; 180 minutes): increased
- c-myc mRNA (aorta mRNA expression; 180 minutes): significant increase
- IL-6 mRNA (aorta mRNA expression; vs sham): significant increase
- C-peptide corrected insulin AUC(0-2) ([1]; sc): 355.2 ± 170.2 pmol·h/L
- C-peptide corrected insulin AUC(0-6) ([1]; sc): 942.8 ± 333.0 pmol·h/L
- C-peptide corrected insulin tmax, median ([1]; sc): 1.88 h
- C-peptide corrected insulin C^b ([1]; sc): 159.5 ± 75.6 pmol/L
- C-peptide corrected insulin t^b, median ([1]; sc): 1.00 h
- % Max Glucose Reduction (plasma glucose; 10 Units SC, carrier 0, unaudited data): 32.3 ± 9.6%
- Glucose change AUEC(0-2) (plasma glucose; 10 Units SC, all subjects): -0.71 ± 1.32 mmol·h/L
- Glucose change AUEC(0-6) (plasma glucose; 10 Units SC, all subjects): -1.40 ± 4.41 mmol·h/L
- Glucose change from baseline Emax (plasma glucose; 10 Units SC, all subjects): -2.28 ± 0.5 mmol/L and -2.28 ± 0.40 mmol/L
- Glucose change tEmax, median (plasma glucose; 10 Units SC, all subjects): 1.00 h
- Maximum % change of glucose from baseline up to 6 h (plasma glucose; 10 Units SC, all subjects): −39.82±8.26%
- Plasma glucose AURC(0-2) (plasma glucose; 10 Units SC, all subjects): 10.40 ± 1.36 mmol·h/L
- Plasma glucose AURC(0-6) (plasma glucose; 10 Units SC, all subjects): 32.02 ± 4.66 mmol·h/L
- Plasma glucose Rmax (minimum concentration) (plasma glucose; 10 Units SC, all subjects): 3.31 ± 0.42 mmol/L
- Plasma glucose tRmax, median (plasma glucose; 10 Units SC, all subjects): 1.00 h
- Glucose change AUEC(0-6) (plasma glucose; [4]): 1.00 mmol·h/L
- Glucose change E^c (immediately prior to recovery from hypoglycemia) (plasma glucose; [4]): -0.71 ± 1.32 mmol/L
- Glucose change from baseline Emax (plasma glucose; [4]): -2.28 ± 0.40 mmol/L
- Glucose change tEmax, median (plasma glucose; [4]): 1.00 h
- Maximum % change of glucose from baseline up to 6 h (plasma glucose; [4]): −39.82 ± 8.26%
- Plasma glucose AURC(0-2) (plasma glucose; [4]): 10.40 ± 1.36 mmol·h/L
- Plasma glucose AURC(0-6) (plasma glucose; [4]): 32.02 ± 4.66 mmol·h/L
- Plasma glucose R^b (immediately prior to recovery from hypoglycemia) (plasma glucose; [4]): 3.45 ± 0.41 mmol/L
- Plasma glucose Rmax (minimum concentration) (plasma glucose; [4]): 3.31 ± 0.42 mmol/L
- Plasma glucose tRmax, median (plasma glucose; [4]): 1.00 h
- Plasma glucose t^b, median (plasma glucose; [4]): 1.00 h
